Experiment [1] addresses T1, mTOR (Homo sapiens, UniProt P42345).
T1 construct: Dilute TOR fraction 1:14 in “Simple TOR Buffer”
Kind of experiment: mTOR HTR-FRET Assay. The experiment is classed as biochemical. The following applies: HTR-FRET screening assay, GST-p70S6 kinase fragment substrate. The method, then:
The following is an example of an assay that can be used to determine the mTOR inhibitory activity of a test compound. Reagents are prepared as follows:
“Simple TOR buffer” (used to dilute high glycerol TOR fraction): 10 mM Tris pH 7.4, 100 mM NaCl, 0.1% Tween-20, 1 mM DTT (from 1M stock frozen at −20° C. just prior to use). For convenience a large quantity of “Simple TOR buffer” w/o DTT can be stored at 4° C. It can be brought to room temperature and DTT added just prior to dilution of TOR fraction.
5×KB/5×Mn/5×ATP solution (used to dilute substrate GST-p70S6kin 81 a.a. just prior to use) (40 ml screen quantity shown):
Enzyme solution: Dilute TOR fraction 1:14 in “Simple TOR Buffer”. For current lot that is 640 μg/ml TOR fraction diluted 14× to yield 45.7 μg/ml TOR in buffer (i.e. 7.85 ml TOR pooled fraction+102.1 ml Simple TOR buffer=110 ml 14× diluted TOR fraction). Each Enzyme Lot must be QC'd prior to assay.
Substrate solution: This may be prepared just prior to assay if preferred. Dilute 5.3 mg/ml GST-p70S6kinase fragment stock to 3.5 μg/ml (97 nM) working stock in 5×KB/5×Mn/5×ATP solution (i.e. 26.41 μL (5.3 mg/ml) GST-p70S6+40 ml 5×KB/5×Mn/5×ATP=40 ml 3.5 μg/ml (97 nM)).
Assay Buffer (for dilution of Antibodies used in Antibody Detection Reagent):
Antibody Detection Reagent (this reagent should be made just prior to addition to Assay Plates):
Using PlateTrak program (Screen) or Matrix Pipettor (SAR), 19.5 μL of diluted TOR fraction is added to assay plate in all test, reference or positive control wells. 19.5 μL of “Simple TOR buffer” is added to all negative control wells. If treating multiple plates with the same compounds, can increase volume of enzyme to multiples of 19.5 μL in a tall 384 well polypropylene plate.
Using EP3, 0.5 μl of test, reference or control DMSO is added to each well with mixing. Plates are incubated for 30 minutes at room temperature.
Using PlateTrak program (Screen) or Matrix Pipettor (SAR) 5 μL of 5×KB/5×Mn/5×ATP/5× substrate solution is added to each well of the assay plate to start the reaction. The solutions are mixed well and incubated for 2 hours at room temperature.
Using PlateTrak program (Screen) or Matrix Pipettor (SAR) 5 μL of 60 mM EDTA is added to stop the reaction. The solutions are mixed well and allowed to sit for 15-20 minutes before the next step.
Using PlateTrak program (Screen) or Matrix Pipettor (SAR) 10 μl of Antibody Detection Reagent is added. The solutions are mixes well and incubated for 5 hours to O/N to allow antibodies to form complexes with phosphorylated substrate.
Plates are read on AnalystHT using protocol Multi-Method protocol.

Experiment [2] deals with T2, PKCθ (Homo sapiens, UniProt Q04759).
T2 construct: purchased Invitrogen
T2 sequence (Q04759 whole entry): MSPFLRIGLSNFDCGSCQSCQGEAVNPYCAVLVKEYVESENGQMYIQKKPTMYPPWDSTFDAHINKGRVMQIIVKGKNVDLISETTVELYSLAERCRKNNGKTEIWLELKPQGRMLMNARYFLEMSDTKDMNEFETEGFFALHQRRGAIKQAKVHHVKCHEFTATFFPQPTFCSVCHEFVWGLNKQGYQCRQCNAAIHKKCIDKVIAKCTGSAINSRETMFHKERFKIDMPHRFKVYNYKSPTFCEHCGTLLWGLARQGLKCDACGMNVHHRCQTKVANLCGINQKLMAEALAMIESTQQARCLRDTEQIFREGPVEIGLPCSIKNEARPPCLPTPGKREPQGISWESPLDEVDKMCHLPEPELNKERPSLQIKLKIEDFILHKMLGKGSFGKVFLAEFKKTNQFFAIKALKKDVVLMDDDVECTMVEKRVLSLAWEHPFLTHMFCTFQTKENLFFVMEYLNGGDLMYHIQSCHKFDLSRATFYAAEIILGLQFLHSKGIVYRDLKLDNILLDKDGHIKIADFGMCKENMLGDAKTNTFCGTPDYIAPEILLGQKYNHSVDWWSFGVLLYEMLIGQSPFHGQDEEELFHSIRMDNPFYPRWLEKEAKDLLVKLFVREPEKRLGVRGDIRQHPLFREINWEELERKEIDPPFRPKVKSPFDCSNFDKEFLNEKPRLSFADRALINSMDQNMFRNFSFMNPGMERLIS
Kind of experiment: PKCθ IMAP Assay. The experiment is classed as biochemical. The following applies: IMAP fluorescence polarization screening assay, 35 μM ATP. In short, it runs like this:
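IMAP fluorescence polarization with 0.5 nM PKCθ, 100 nM FAM-AKRRRLSSLRA, 35 μM ATP, 2.5% DMSO, pH 7.6 HEPES with phosphatidyl serine/diacylglycerol. Compound pre-incubated with enzyme 45 min; reaction 60 min, then binding beads ≥30 min before FP read.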

pIC50: −log10 of the molar value.

One may read the pIC50 as −log10 of the IC50, conventionally taken in molar units. High values mean a small IC50, low ones a large IC50.

Regarding `C[C@H](c1ccccc1)n1c(=O)[nH]c2ncc(-c3cccc4ncccc34)nc21` [Compound 10, (R)-1-(1-phenylethyl)-6-(quinolin-5-yl)-1H-imidazo[4,5-b]pyrazin-2(3H)-one], the pIC50 in experiment [1] is 4.70 to 5.00; in experiment [2] it was 5.30 to 7.00.
Regarding `O=c1[nH]c2ncc(-c3cccc4ncccc34)nc2n1Cc1ccccc1` [Compound 14, 1-benzyl-6-(quinolin-5-yl)-1H-imidazo[4,5-b]pyrazin-2(3H)-one], the figures for the pIC50 in experiment [1] and in experiment [2] were 5.30 to 7.00 and less than 4.52, respectively.
Turning to `COc1ccc(Cn2c(=O)[nH]c3ncc(-c4cccc5ncccc45)nc32)cc1` [Compound 15, 1-(4-methoxybenzyl)-6-(quinolin-5-yl)-1H-imidazo[4,5-b]pyrazin-2(3H)-one], the results for the pIC50 in experiment [1] and in experiment [2] were 5.30 to 7.00 and less than 4.52, respectively.
Consider `C[C@H](c1ccccc1)n1c(=O)[nH]c2cnc(-c3cccc4ncccc34)cc21` [Compound 24, (R)-1-(1-phenylethyl)-6-(quinolin-5-yl)-1H-imidazo[4,5-c]pyridin-2(3H)-one], for which the pIC50 in experiment [1] and in experiment [2] was less than 4.52 each time.
In the case of `C[C@@H](c1ccccc1)n1c(=O)[nH]c2cnc(-c3cccc4ncccc34)cc21` [Compound 25, (S)-1-(1-phenylethyl)-6-(quinolin-5-yl)-1H-imidazo[4,5-c]pyridin-2(3H)-one], the pIC50 in experiment [1] and in experiment [2] was less than 4.52 in each case.
As to `CC(c1ccccc1)n1c(=O)[nH]c2ccc(-c3cccc4ncccc34)nc21` (stereo not drawn) [Compound 26, 3-(1-phenylethyl)-5-(quinolin-5-yl)-1H-imidazo[4,5-b]pyridin-2(3H)-one], the pIC50 in experiment [1] was less than 4.52; in experiment [2], 5.00 to 5.29.
For the compound `C[C@H](c1ccccc1)n1c(=O)[nH]c2ccc(-c3cccc4ncccc34)nc21` [Compound 27, (R)-3-(1-phenylethyl)-5-(quinolin-5-yl)-1H-imidazo[4,5-b]pyridin-2(3H)-one], the pIC50 in experiment [1] is less than 4.52; in experiment [2], 5.00 to 5.29.
Take `O=c1[nH]c2ncc(-c3cccc4ncccc34)nc2n1[C@@H](CO)c1ccccc1` [Compound 40, (R)-1-(2-hydroxy-1-phenylethyl)-6-(quinolin-5-yl)-1H-imidazo[4,5-b]pyrazin-2(3H)-one]: the pIC50 in experiment [1] and in experiment [2] was 4.70 to 5.00 each time.
In the case of `O=c1[nH]c2ncc(-c3cccc4ncccc34)nc2n1[C@H](CO)c1ccccc1` [Compound 41, (S)-1-(2-hydroxy-1-phenylethyl)-6-(quinolin-5-yl)-1H-imidazo[4,5-b]pyrazin-2(3H)-one], the pIC50 in experiment [1] was 5.00 to 5.29; in experiment [2], 5.30 to 7.00.
Take `CC[C@H](c1ccccc1)n1c(=O)[nH]c2ncc(-c3cccc4ncccc34)nc21` [Compound 45, (R)-1-(1-phenylpropyl)-6-(quinolin-5-yl)-1H-imidazo[4,5-b]pyrazin-2(3H)-one]: the pIC50 in experiment [1] is less than 4.52; in experiment [2] it was 5.30 to 7.00.
In the case of `COc1cccc(Cn2c(=O)[nH]c3ncc(-c4cccc5ncccc45)nc32)c1` [Compound 47, 1-(3-methoxybenzyl)-6-(quinolin-5-yl)-1H-imidazo[4,5-b]pyrazin-2(3H)-one], the results for the pIC50 in experiment [1] and in experiment [2] were 5.30 to 7.00 and less than 4.52, respectively.
Consider `O=c1[nH]c2ncc(-c3cccc4ncccc34)nc2n1CC1CCCC1` [Compound 50, 1-(cyclopentylmethyl)-6-(quinolin-5-yl)-1H-imidazo[4,5-b]pyrazin-2(3H)-one], for which the pIC50 in experiment [1] is 5.30 to 7.00; in experiment [2], 4.70 to 5.00.
On the same counts, the results for `CC(c1ccccc1F)n1c(=O)[nH]c2ncc(-c3cccc4ncccc34)nc21` (stereo not drawn) [Compound 51, 1-(1-(2-fluorophenyl)ethyl)-6-(quinolin-5-yl)-1H-imidazo[4,5-b]pyrazin-2(3H)-one] are 5.00 to 5.29 and 5.00 to 5.29.
As to `CC(c1ccc(F)cc1)n1c(=O)[nH]c2ncc(-c3cccc4ncccc34)nc21` (stereo not drawn) [Compound 52, 1-(1-(4-fluorophenyl)ethyl)-6-(quinolin-5-yl)-1H-imidazo[4,5-b]pyrazin-2(3H)-one], the pIC50 in experiment [1] is 5.00 to 5.29; in experiment [2] it was 5.30 to 7.00.
Taken in the same sequence, the figures for `O=c1[nH]c2ncc(-c3cccc4ncccc34)nc2n1C1CCCC1` [Compound 53, 1-cyclopentyl-6-(quinolin-5-yl)-1H-imidazo[4,5-b]pyrazin-2(3H)-one] were 5.00 to 5.29 and less than 4.52.
Take `CC(c1cccc(F)c1)n1c(=O)[nH]c2ncc(-c3cccc4ncccc34)nc21` (stereo not drawn) [Compound 54, 1-(1-(3-fluorophenyl)ethyl)-6-(quinolin-5-yl)-1H-imidazo[4,5-b]pyrazin-2(3H)-one]: the values for the pIC50 in experiment [1] and in experiment [2] were 5.00 to 5.29 and 5.30 to 7.00, respectively.
Regarding `COc1cccc(C(C)n2c(=O)[nH]c3ncc(-c4cccc5ncccc45)nc32)c1` (stereo not drawn) [Compound 55, 1-(1-(3-methoxyphenyl)ethyl)-6-(quinolin-5-yl)-1H-imidazo[4,5-b]pyrazin-2(3H)-one], the pIC50 in experiment [1] was 5.00 to 5.29; in experiment [2] it was 5.30 to 7.00.
As for `COc1ccc(C(C)n2c(=O)[nH]c3ncc(-c4cccc5ncccc45)nc32)cc1` (stereo not drawn) [Compound 56, 1-(1-(4-methoxyphenyl)ethyl)-6-(quinolin-5-yl)-1H-imidazo[4,5-b]pyrazin-2(3H)-one], the pIC50 was less than 4.52 in experiment [1] and 5.30 to 7.00 in experiment [2].
As for `O=c1[nH]c2ncc(-c3cccc4ncccc34)nc2n1C1CCOCC1` [Compound 57, 6-(quinolin-5-yl)-1-(tetrahydro-2H-pyran-4-yl)-1H-imidazo[4,5-b]pyrazin-2(3H)-one], the pIC50 in experiment [1] and in experiment [2] was less than 4.52 each time.
For the compound `O=c1[nH]c2ncc(-c3cccc4ncccc34)nc2n1C1CCCOC1` (stereo not drawn) [Compound 58, 6-(quinolin-5-yl)-1-(tetrahydro-2H-pyran-3-yl)-1H-imidazo[4,5-b]pyrazin-2(3H)-one], the pIC50 is 4.70 to 5.00 in experiment [1] and less than 4.52 in experiment [2].
For `O=c1[nH]c2ncc(-c3cccc4ncccc34)nc2n1C1CCC(O)CC1` (stereo not drawn) [Compound 59, 1-((1s,4s)-4-hydroxycyclohexyl)-6-(quinolin-5-yl)-1H-imidazo[4,5-b]pyrazin-2(3H)-one], the pIC50 in experiment [1] and in experiment [2] was 4.70 to 5.00 throughout.
Take `O=c1[nH]c2ncc(-c3cccc4ncccc34)nc2n1C1CCC(O)CC1` (stereo not drawn) [Compound 60, 1-((1r,4r)-4-hydroxycyclohexyl)-6-(quinolin-5-yl)-1H-imidazo[4,5-b]pyrazin-2(3H)-one]: the pIC50 in experiment [1] was less than 4.52; in experiment [2], 4.52 to 4.70.
Turning to `CC(c1ccccc1)n1c(=O)[nH]c2ncc(-c3cccc4cnccc34)nc21` (stereo not drawn) [Compound 61, 6-(isoquinolin-5-yl)-1-(1-phenylethyl)-1H-imidazo[4,5-b]pyrazin-2(3H)-one], the pIC50 in experiment [1] is 5.00 to 5.29; in experiment [2], 4.70 to 5.00.
On to `CC(C)n1c(=O)[nH]c2ncc(-c3cccc4ncccc34)nc21` [Compound 64, 1-isopropyl-6-(quinolin-5-yl)-1H-imidazo[4,5-b]pyrazin-2(3H)-one], for which the pIC50 in experiment [1] was 5.00 to 5.29; in experiment [2] it was 4.52 to 4.70.
Take `CC(c1ccc(Cl)cc1)n1c(=O)[nH]c2ncc(-c3cccc4ncccc34)nc21` (stereo not drawn) [Compound 65, 1-(1-(4-chlorophenyl)ethyl)-6-(quinolin-5-yl)-1H-imidazo[4,5-b]pyrazin-2(3H)-one]: the pIC50 in experiment [1] is 5.00 to 5.29; in experiment [2] it was 5.30 to 7.00.
As to `Cc1nc2[nH]c(=O)n([C@@H](C)c3ccccc3)c2nc1-c1cccc2ncccc12` [Compound 68, 5-methyl-1-((S)-1-phenylethyl)-6-(quinolin-5-yl)-1H-imidazo[4,5-b]pyrazin-2(3H)-one], the pIC50 in experiment [1] and in experiment [2] was less than 4.52 each time.
Regarding `Cc1nc2[nH]c(=O)n([C@H](C)c3ccccc3)c2nc1-c1cccc2ncccc12` [Compound 69, 5-methyl-1-((R)-1-phenylethyl)-6-(quinolin-5-yl)-1H-imidazo[4,5-b]pyrazin-2(3H)-one], the figures for the negative logarithm of the IC50 (pIC50) in experiment [1] and in experiment [2] were less than 4.52 and 5.00 to 5.29, respectively.

These data come from patent US7981893B2, “Heteroaryl compounds, compositions thereof, and methods of treatment therewith” (Signal Pharmaceuticals, LLC, priority 2006, dated 2011).
